Measurements from US20210189342A1, “COMPOSITIONS AND METHODS FOR MODULATING MONOCYTE AND MACROPHAGE INFLAMMATORY PHENOTYPES AND IMMUNOTHERAPY USES THEREOF” (Verseau Therapeutics, Inc., priority 2018, published 2021).

Test system: CD207
Assay: siRNA dose response, CD207 mRNA knockdown, Dual-Glo Luciferase Assay
Format: cell-based, human
Settings: Hepal-6 + reporter plasmid, 24 hr
Procedure: (§1) Dose response curves for siRNAs were generated in vitro using a variety of cell lines according to Table 4.
(§2) Briefly, cells were seeded in 96-well plates and reverse transfected with siRNA, Lipofectamine® 2000 (0.5 uL/well; ThermoFisher), and, in some cases, a reporter plasmid (50 ng/well). The reporter plasmid (psiCHECK™-2, Promega) encoded both firefly luciferase and the gene of interest fused to renilla luciferase; silencing of the gene of interest results in proportional silencing of renilla luciferase but leaves firefly luciferase unaffected as an internal control.
(§3) After 24 hr incubation at 37° C., mRNA knockdown was measured using an endpoint assay. For targets without a reporter plasmid, a branched DNA (bDNA) assay was performed according to the manufacturer's instructions (QuantiGene® Singleplex Gene Expression Assay, ThermoFisher) to measure both the target gene and GAPDH (housekeeping gene) mRNA. Data are plotted as siRNA concentration (nM) vs. remaining mRNA (ratio of target gene to GAPDH, normalized to mock siRNA-transfected cells). For targets with a reporter plasmid, a Dual-Glo® Luciferase Assay was performed according to the manufacturer's instructions (Promega) to measure firefly and renilla luciferase expression. Data are plotted as siRNA concentration (nM) vs. remaining mRNA (ratio of renilla to firefly luminescence, normalized to mock siRNA-transfected cells).
(§4) For all dose response curves, a 4-parameter logistic model was applied to determine the IC50 of each siRNA sequence (Table 5 and FIG. 2). Data shown in Table 5 and FIG. 2 represent the mean of quadruplicates, +/−standard deviation.

Which IC50 does the source give for “XD-09241: siRNA targeting CD207 (sense 5'-gaAAAcAcccAcAguccGudTsdT-3'; antisense 5'-ACGGACUGUGGGUGUUUUCdTsdT-3'; as printed in the source, key not given here)” here?
The IC50 was 0.203 nM.

For “XD-09242: siRNA targeting CD207 (sense 5'-caGuccGuGcuGcauuAAudTsdT-3'; antisense 5'-AUuAAUGcAGcACGGACUGdTsdT-3'; as printed in the source, key not given here)”, which IC50 is on record?
The IC50 was 0.009 nM.

“XD-09243: siRNA targeting CD207 (sense 5'-guccGuGcuGcAuuAAucudTsdT-3'; antisense 5'-AGAUuAAUGcAGcACGGACdTsdT-3'; as printed in the source, key not given here)” was tested. Which IC50 did it give?
The IC50 was 0.198 nM.

How did the IC50 turn out when “XD-09245: siRNA targeting CD207 (sense 5'-gcGuucAGAuccAgAuGGudTsdT-3'; antisense 5'-ACcAUCUGGAUCUGAACGCdTsdT-3'; as printed in the source, key not given here)” was run?
Its IC50 is 0.02 nM.

How did the IC50 turn out when “XD-09246: siRNA targeting CD207 (sense 5'-aaAuAcAAAGAuccGGGcAdTsdT-3'; antisense 5'-UGCCCGGAUCUUUGuAUUUdTsdT-3'; as printed in the source, key not given here)” was run?
Its IC50 is 0.025 nM.

How did the IC50 turn out when “XD-09248: siRNA targeting CD207 (sense 5'-uauucuAcAGGuGguuucudTsdT-3'; antisense 5'-AGAAACcACCUGuAGAAuAdTsdT-3'; as printed in the source, key not given here)” was run?
The IC50 was < 0.005 nM.

How did the IC50 turn out when “XD-09249: siRNA targeting CD207 (sense 5'-uauAGuGccGAGcaGuucudTsdT-3'; antisense 5'-AGAACUGCUCGGcACuAuAdTsdT-3'; RNA with 2'-O-methyl and phosphorothioate modifications, case key not given here, as printed in the source, key not given here)” was run?
The IC50 was 0.153 nM.

Test system: LILRB2
Assay: siRNA dose response, LILRB2 mRNA knockdown, Dual-Glo Luciferase Assay
Format: cell-based, human
Settings: Hepa1-6 + reporter plasmid, 24 hr
Procedure: as §1, §2, §3, §4

For “XD-10590: siRNA targeting LILRB2 (sense 5'-caGcAuCuuGGAuuAcAcsa-3'; antisense 5'-dTGUGuAAUCcAAGAUGCUGusu-3'; RNA with 2'-O-methyl and phosphorothioate modifications, case key not given here, as printed in the source, key not given here)”, which IC50 is on record?
Its IC50 is 0.068 nM.

How did the IC50 turn out when “XD-10591: siRNA targeting LILRB2 (sense 5'-ggAuAcGAccAGAgcuugsa-3'; antisense 5'-dTCAAGCUCUGGUCGuAUccusu-3'; RNA with 2'-O-methyl and phosphorothioate modifications, case key not given here, as printed in the source, key not given here)” was run?
Its IC50 is 0.073 nM.

“XD-10592: siRNA targeting LILRB2 (sense 5'-gcGAuAUGGcuGucAGuasa-3'; antisense 5'-dTUACUGAcAGCcAUAUCGCusu-3'; RNA with 2'-O-methyl and phosphorothioate modifications, case key not given here, as printed in the source, key not given here)” was tested. Which IC50 did it give?
Its IC50 is 0.459 nM.

For “XD-10593: siRNA targeting LILRB2 (sense 5'-cuAuGGUuAuGAcuuGAasa-3'; antisense 5'-dTUUcAAGUcAuAACcAuAGusu-3'; RNA with 2'-O-methyl and phosphorothioate modifications, case key not given here, as printed in the source, key not given here)”, which IC50 is on record?
The IC50 was 0.136 nM.

“XD-10594: siRNA targeting LILRB2 (sense 5'-gguuAuGAcuuGAccucusa-3'; antisense 5'-dTAGAGUUcAAGUcAuAACCusu-3'; RNA with 2'-O-methyl and phosphorothioate modifications, case key not given here, as printed in the source, key not given here)” was tested. Which IC50 did it give?
The IC50 was 0.089 nM.

Which IC50 does the source give for “XD-10597: siRNA targeting LILRB2 (sense 5'-cccAcuCcGucuAaGAucsa-3'; antisense 5'-dTGAUCUuAGACGGAGUGGGusu-3'; RNA with 2'-O-methyl and phosphorothioate modifications, case key not given here, as printed in the source, key not given here)” here?
Its IC50 is 0.059 nM.

With “XD-10598: siRNA targeting LILRB2 (sense 5'-ccAcucCGucuAAgAucasa-3'; antisense 5'-dTUGAUCUuAGACGGAGUGGusu-3'; as printed in the source, key not given here)” as the substance, how does the IC50 read?
The IC50 was 0.109 nM.

With “XD-10599: siRNA targeting LILRB2 (sense 5'-cacuccGucuAAGaucAasa-3'; antisense 5'-dTUUGAUCUuAGACGGAGUGusu-3'; RNA with 2'-O-methyl and phosphorothioate modifications, case key not given here, as printed in the source, key not given here)” as the substance, how does the IC50 read?
Its IC50 is 0.127 nM.

Test system: CLEC7A
Assay: siRNA dose response, CLEC7A mRNA knockdown, Dual-Glo Luciferase Assay
Format: cell-based, human
Settings: Hepa1-6 + reporter plasmid, 24 hr
Procedure: as §1, §2, §3, §4

For “XD-10561: siRNA targeting CLEC7A (sense 5'-ggucAAGAuAAAugcAGAAdTsdT-3'; antisense 5'-UUCUGcAUUaAUCUUAACCdTsdT-3'; RNA with 2'-O-methyl and phosphorothioate modifications, case key not given here, as printed in the source, key not given here)”, which IC50 is on record?
The IC50 was 0.009 nM.

With “XD-10562: siRNA targeting CLEC7A (sense 5'-agGuAGGcuAGuAuuAuuudTsdT-3'; antisense 5'-AAAuAAuACuAGCCuACCUdTsdT-3'; as printed in the source, key not given here)” as the substance, how does the IC50 read?
Its IC50 is 0.033 nM.

For “XD-10564: siRNA targeting CLEC7A (sense 5'-ggGuAAGccAuAAgcGaaudTsdT-3'; antisense 5'-AUUCGCUuAUGGCUuACCCdTsdT-3'; RNA with 2'-O-methyl and phosphorothioate modifications, case key not given here, as printed in the source, key not given here)”, which IC50 is on record?
The IC50 was < 0.004 nM.

Which IC50 does the source give for “XD-10565: siRNA targeting CLEC7A (sense 5'-ccAuAAGcGAAucuuAAuudTsdT-3'; antisense 5'-AAUuAAGAUUCGCUuAUGGdTsdT-3'; RNA with 2'-O-methyl and phosphorothioate modifications, case key not given here, as printed in the source, key not given here)” here?
The IC50 was < 0.004 nM.

“XD-10566: siRNA targeting CLEC7A (sense 5'-ugccAuAucucuAauAGAAdTsdT-3'; antisense 5'-UUCuAUuAGAGAuAUGGcAdTsdT-3'; RNA with 2'-O-methyl and phosphorothioate modifications, case key not given here, as printed in the source, key not given here)” was tested. Which IC50 did it give?
The IC50 was 0.006 nM.

For “XD-10567: siRNA targeting CLEC7A (sense 5'-gccuAGAAucuuGuAuAAudTsdT-3'; antisense 5'-AUuAuAcAAGAUUCuAGGCdTsdT-3'; as printed in the source, key not given here)”, which IC50 is on record?
Its IC50 is 0.023 nM.

For “XD-10568: siRNA targeting CLEC7A (sense 5'-ccuAGAAucuuGuauAAuAdTsdT-3'; antisense 5'-uAUuAuAcAAGAUUCuAGGdTsdT-3'; as printed in the source, key not given here)”, which IC50 is on record?
The IC50 was 0.016 nM.
